# How the values were obtained:
# [1] = system: ERK1/2 phosphorylation of p90RSK in HT29 cells; assay: pRSK MSD Assay in HT29 cells; format: cell-based; conditions: Homo sapiens, HT-29, read-out: ERK1/ERK2 PRSK MSD HT29 EC50
# Method in brief: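 Phospho-RSK level, read by electrochemiluminescence on RSK-antibody-coated MSD plates with a phospho-RSK/Sulfo-tag detection pair, reports cellular ERK1/2 activity. HT29 cells, kept overnight in 0.1% FBS medium, were exposed to compound for 120 min at 37° C before lysis.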
# [2] = system: HT-29 cells (colorectal adenocarcinoma); assay: Inhibition of cancer cell proliferation, HT-29 (CellTiterGlo, 72 hours); format: cell-based; conditions: Homo sapiens
# Protocol: Measurement of Inhibition of Cancer Cell Proliferation (HT-29/Colorectal Adenocarcinoma)
# The following protocol used an HT-29 cell line, which cell line is a model for colorectal adenocarcinoma. HT-29 cells were split and 3000 cells in 100 μl of growth medium were added per well of a flat-bottom 96-well plate. A two-fold test compound solution in serum-free RPM1640 was made, starting at 5,000 nM. Then, 3-fold serial dilutions were made across the plate from well 1 to well 11. Well 12, the last well in a row on the plate, was left as untreated control. 100 μl compound solutions were then transferred to the wells, so the total volume of media was 200 μl per well. Plates were returned to a 37° C. incubator, and the cells were cultured for 72 hours. To measure cell proliferation after 72 hours, media was discarded from the plates, 50 μl/well of fresh medium was added, and 50 μl CellTiterGlo solution was added (Promega Cat#G7573). The plate was covered with a dark lid and incubated for 10 min. A white sealing tape was applied to the bottom of the plate, and the plate was read in a luminescence plate reader. […] A 2-fold serial dilution was used to generate 8 cell densities from 50,000-390 cells per well in 50 μl media. 50 μl CellTiterGlo was added per well, and the plate was read in a luminescence plate reader after 10 min. The reading was plotted vs. cell number to generate a standard curve and the equation of the curve fit. The compound-treated sample luminescence readings were converted to cell numbers using the curve-fit equation. The percent of inhibition, using untreated control as 100% growth, was then calculated. GI50 was then calculated by GraphPad Prism.
# [3] = biological target: T1, MEK1 activated ERK1 (Homo sapiens, UniProt P27361); assay: Omnia continuous-read kinase assay for potency against MEK1 activated ERK1; format: biochemical; conditions: MEK1 activated ERK1, ATP at KM; read-out: ERK1 Omnia WT ATP KM IC50
# T1 construct: purchased Millipore (Billerica, Mass.) 14-439-K
# Method in brief: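 Apparent IC50 came from initial reaction slopes (RFU vs time) plotted against log inhibitor with a variable-slope fit. Reactions were started with ERK1 (4 nM final) added to 50 μM ATP, roughly at its appKM, and 10 μM Sox-conjugated ST17 peptide in 20 mM Tris pH 7.5, 5 mM MgCl2. Fluorescence was monitored every 71 seconds.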
# T1 sequence (P27361 whole entry): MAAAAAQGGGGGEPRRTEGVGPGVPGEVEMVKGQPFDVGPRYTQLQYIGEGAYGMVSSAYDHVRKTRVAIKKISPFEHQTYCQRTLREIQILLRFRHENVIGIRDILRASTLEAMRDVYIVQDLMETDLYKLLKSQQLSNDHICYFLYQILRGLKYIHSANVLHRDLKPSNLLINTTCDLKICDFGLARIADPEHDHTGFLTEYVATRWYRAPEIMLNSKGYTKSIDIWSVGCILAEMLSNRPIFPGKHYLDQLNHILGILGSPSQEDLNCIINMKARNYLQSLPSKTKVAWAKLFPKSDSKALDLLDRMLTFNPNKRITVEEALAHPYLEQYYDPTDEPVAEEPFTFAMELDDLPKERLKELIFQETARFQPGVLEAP
EC50 [1] [nM],GI50 [2] [nM],IC50 [3] [nM],SMILES
< 100,101 to 500,–,C=CC(=O)Nc1cc(F)ccc1Nc1nc(Nc2cc(C(N)=O)ccc2OC)ncc1Cl [Compound I-208]
< 100,< 100,–,"C=CC(=O)Nc1ccccc1Nc1nc(Nc2cc(C(N)=O)ccc2C#N)ncc1Cl [Compound I-192, 3-((4-((2-acrylamidophenyl)amino)-5-chloropyrimidin-2-yl)amino)-4-cyanobenzamide]"
501 to 999,101 to 500,101 to 500,"C=CC(=O)Nc1ccccc1Nc1nc(Nc2cc(C(=O)NOCCO)ccc2OC)ncc1C(F)(F)F [Compound I-74, 3-((4-((2-Acrylamidophenyl)amino)-5-(trifluoromethyl)pyrimidin-2-yl)amino)-N-(2-hydroxyethoxy)-4-methoxybenzamide]"
> 1000,501 to 999,501 to 999,"C=CC(=O)N(C)c1ccccc1Nc1nc(N[C@@H]2CCC[C@H](C(N)=O)C2)ncc1Cl (racemic) [Compound I-105, Rac-cis-3-((5-chloro-4-((2-(N-methylacrylamido)phenyl)amino)pyrimidin-2-yl)amino)cyclohexanecarboxamide]"
–,> 1000,101 to 500,"C=CC(=O)Nc1ccccc1Nc1nc(Nc2cc(C(=O)NOC)ccc2C#N)ncc1C(F)(F)F [Compound I-72, 3-((4-((2-Acrylamidophenyl)amino)-5-(trifluoromethyl)pyrimidin-2-yl)amino)-4-cyano-N-methoxybenzamide]"
> 1000,> 1000,–,"C=CC(=O)Nc1ccccc1Nc1nc(Nc2ccc(OCCCNC(=O)CCCC(=O)NCCCOCCOCCOCCCNC(=O)CCCC[C@H]3SC[C@H]4NC(=O)N[C@H]43)cc2OC)ncc1Cl [Compound I-302, N^1-(3-(4-((4-((2-acrylamidophenyl)amino)-5-chloropyrimidin-2-yl)amino)-3-methoxyphenoxy)propyl)-N^5-(15-oxo-19-((3aR,4R,6aS)-2-oxohexahydro-1H-thieno[3,4-d]imidazol-4-yl)-4,7,10-trioxa-14-azanonadecyl)glutaramide]"
–,> 1000,> 1000,"C=CC(=O)N[C@@H]1CCCC[C@H]1Nc1nc(Nc2cc(C(=O)NOC)ccc2C)ncc1C(N)=O (racemic) [Compound I-256, Rac-trans-4-((2-acrylamidocyclohexyl)amino)-2-((5-(methoxycarbamoyl)-2-methylphenyl)amino)pyrimidine-5-carboxamide]"
501 to 999,> 1000,101 to 500,"C=CC(=O)Nc1cc(OC)ccc1Nc1nc(Nc2ccc(N3CCCN(C(=O)OC(C)(C)C)CC3)cc2C#N)ncc1Cl [Compound I-156, tert-butyl 4-(4-((4-((2-acrylamido-4-methoxyphenyl)amino)-5-chloropyrimidin-2-yl)amino)-3-cyanophenyl)-1,4-diazepane-1-carboxylate]"
< 100,101 to 500,–,"C=CC(=O)Nc1ccccc1Nc1nc(N[C@H]2CCCN(C=O)C2)ncc1C(F)(F)F [Compound I-9, (S)—N-(2-((2-((1-formylpiperidin-3-yl)amino)-5-(trifluoromethyl)pyrimidin-4-yl)amino)phenyl)acrylamide]"
–,> 1000,–,"C=CC(=O)Nc1ccccc1Oc1nc(Nc2ccc(N3CCN(C(C)=O)CC3)cc2OC)ncc1C(N)=O [Compound I-258, 2-((4-(4-acetylpiperazin-1-yl)-2-methoxyphenyl)amino)-4-(2-acrylamidophenoxyl)pyrimidine-5-carboxamide]"
> 1000,> 1000,101 to 500,"C=CC(=O)Nc1ccccc1Oc1nc(NC(C)(C)C)ncc1C(N)=O [Compound I-267, 4-(2-acrylamidophenoxy)-2-(tert-butylamino)pyrimidine-5-carboxamide]"
101 to 500,101 to 500,101 to 500,"C=CC(=O)Nc1ccccc1Nc1nc(NC2CCN(C(C)=O)CC2)ncc1C(F)(F)F [Compound I-12, N-(2-((2-((1-acetylpiperidin-4-yl)amino)-5-(trifluoromethyl)pyrimidin-4-yl)amino)phenyl)acrylamide]"
> 1000,> 1000,101 to 500,"C=CC(=O)Nc1ccccc1Nc1nc(Nc2ccc(N(CC)C(C)=O)cc2OC)ncc1Cl [Compound I-155, N-(2-((5-chloro-2-((4-(N-ethylacetamido)-2-methoxyphenyl)amino)pyrimidin-4-yl)amino)phenyl)acrylamide]"
101 to 500,< 100,< 100,"C=CC(=O)Nc1ccccc1Nc1nc(N[C@@H]2CCC[C@H](C(=O)NOCCO)C2)ncc1Cl (racemic) [Compound I-103, Rac-3-((4-((2-acrylamidophenyl)amino)-5-chloropyrimidin-2-yl)amino)-N-(2-hydroxyethoxy)-cis-cyclohexanecarboxamide]"
101 to 500,101 to 500,–,"C=CC(=O)Nc1ccccc1Nc1nc(N[C@H]2CCCN(S(C)(=O)=O)C2)ncc1Cl [Compound I-125, (S)—N-(2-((5-chloro-2-((1-(methylsulfonyl)piperidin-3-yl)amino)pyrimidin-4-yl)amino)phenyl)acrylamide]"
–,> 1000,> 1000,"C=CC(=O)N[C@@H]1CCCC[C@H]1Nc1nc(Nc2cc(C(N)=O)ccc2C)ncc1C(N)=O (racemic) [Compound I-255, Rac-trans-4-((2-acrylamidocyclohexyl)amino)-2-((5-carbamoyl-2-methylphenyl)amino)pyrimidine-5-carboxamide]"
101 to 500,< 100,–,"C=CC(=O)Nc1ccccc1Nc1nc(Nc2cc(C(=O)NOC)ccc2C)ncc1C(F)(F)F [Compound I-69, 3-((4-((2-Acrylamidophenyl)amino)-5-(trifluoromethyl)pyrimidin-2-yl)amino)-N-methoxy-4-methylbenzamide]"
< 100,101 to 500,–,"C=CC(=O)Nc1ccccc1Nc1nc(NC2CCN(C=O)CC2)ncc1Cl [Compound I-124, N-(2-((5-chloro-2-((1-formylpiperidin-4-yl)amino)pyrimidin-4-yl)amino)phenyl)acrylamide]"
< 100,501 to 999,–,"C=CC(=O)Nc1cc(F)ccc1Nc1nc(Nc2ccc(F)cc2C#N)ncc1Cl [Compound I-221, N-(2-((5-chloro-2-((2-cyano-4-fluorophenyl)amino)pyrimidin-4-yl)amino)-5-fluorophenyl)acrylamide]"
–,> 1000,–,CCOCCC(=O)Nc1ccccc1Nc1nc(Nc2cc(C(N)=O)ccc2C)ncc1Cl [Compound I-130]
101 to 500,101 to 500,–,"C=CC(=O)Nc1ccccc1Nc1nc(Nc2cc(C(N)=O)ccc2CC)ncc1Cl [Compound I-193, 3-((4-((2-acrylamidophenyl)amino)-5-chloropyrimidin-2-yl)amino)-4-ethylbenzamide]"
< 100,101 to 500,–,"C=CC(=O)Nc1ccccc1Nc1nc(Nc2cc(C(N)=O)ccc2C#N)ncc1C(F)(F)F [Compound I-71, 3-((4-((2-Acrylamidophenyl)amino)-5-(trifluoromethyl)pyrimidin-2-yl)amino)-4-cyanobenzamide]"
101 to 500,101 to 500,–,"C=CC(=O)Nc1ccccc1Nc1nc(NC2CCN(S(C)(=O)=O)CC2)ncc1C(F)(F)F [Compound I-13, N-(2-((2-((1-(methylsulfonyl)piperidin-4-yl)amino)-5-(trifluoromethyl)pyrimidin-4-yl)amino)phenyl)acrylamide]"
501 to 999,101 to 500,–,"C=CC(=O)Nc1ccccc1Nc1nc(N[C@@H]2CCC[C@H](C(N)=O)C2)ncc1Cl [Compound I-119, (1S,3R)-3-((4-((2-acrylamidophenyl)amino)-5-chloropyrimidin-2-yl)amino)cyclohexanecarboxamide]"
–,> 1000,–,"C=CC(=O)N[C@@H]1CCCC[C@H]1Nc1nc(Nc2cc(C(=O)NOC)ccc2C)ncc1Cl [Compound I-190, 3-((4-(((1R,2R)-2-acrylamidocyclohexyl)amino)-5-chloropyrimidin-2-yl)amino)-N-methoxy-4-methylbenzamide]"
–,> 1000,101 to 500,"C=CC(=O)Nc1ccccc1Oc1nc(Nc2ccc(N3CCC[C@@H]3C(N)=O)cc2OC)ncc1C(N)=O [Compound I-266, (R)-4-(2-acrylamidophenoxy)-2-((4-(2-carbamoylpyrrolidin-1-yl)-2-methoxyphenyl)amino)pyrimidine-5-carboxamide]"

# — patent publication US9561228B2 (Celgene Avilomics Research, Inc., priority 2013, dated 2017)
